This test concerns Mycobacterium tuberculosis non-replicating, growth inhibition. The test can be described thus: growth inhibition of non-replicating M. tuberculosis (AID 488890).

Results filed as inconclusive are left out. The source made the active and inactive calls. The rule behind the calls is not given here.

With `COc1ccc(/C=N/NC(=O)c2ccncc2)cc1CN1CCOCC1`, the IC50 was 4.37 µM.
With `O=C(OCc1ccc(Cl)c(Cl)c1)c1ccccn1`, the IC50 is 2.27 µM.
With `CCCS(=O)(=O)c1nnnn1-c1cccc(OC)c1`, the IC50 is 3.56 µM.
Consider `O=C(NCc1cccs1)c1ccc([N+](=O)[O-])cc1`, for which the IC50 is 2.84 µM.
To `O=c1oc(/C=C/c2ccc([N+](=O)[O-])s2)nc2ccccc12` belongs 8.47 µM.
To `Cc1cccc(NCc2nnc(-c3ccccc3)o2)c1C` belongs 4.9 µM.
In the case of `COc1cccc(/C=N/NC(=O)c2ccoc2C)c1O`, the IC50 is 1.93 µM.
With `CCOc1ccc(C(=O)N/N=C(/C)C2C(=O)c3ccccc3C2=O)cc1`, the IC50 is 0.47 µM.
The figure for `O=c1oc2ccccc2nc1/C=C(\O)c1ccc(Br)cc1` is 6.03 µM; for `O=C(COC(=O)c1ccccc1)NC12CC3CC(CC(C3)C1)C2` it is 24 µM (inactive).
As to `CC1(c2nnc(Cc3ccccc3)o2)CC(c2ccccc2[N+](=O)[O-])=NO1` (configuration not stated), the IC50 was 10.5 µM (inactive).
The figure for `O=C(Nc1nnc(-c2ccco2)o1)c1cccc2ccccc12` is 19.1 µM (inactive); for `O=C(Nc1nnc(-c2ccccn2)o1)c1cccc(Cl)c1` it is 11.4 µM (inactive); for `Nc1ccc(Nc2ccccc2)cc1` it is 6 µM.
For `COc1ccc(OC(=O)C(C)N2C(=O)c3ccccc3C2=O)cc1` (configuration not stated), the IC50 is 12.3 µM (inactive).
The figure for `CC(=O)N1N=C(c2ccccc2)OC1c1ccc([N+](=O)[O-])s1` (configuration not stated) is 13.4 µM (inactive); for `Cc1[nH]n(S(=O)(=O)Cc2ccccc2)c(=O)c1N=Nc1ccccc1Cl` it is 4.72 µM; for `CCCCOC(=O)c1ccc(NC(=O)C2CCCO2)cc1` (configuration not stated) it is 10 µM (inactive).
To `O=C(CCNc1ccc(Cl)cc1)c1cccs1` belongs 3.79 µM.
For `CC(=O)Nc1ccc(OC(=O)c2ccc(Br)c([N+](=O)[O-])c2)cc1`, the IC50 was 8.96 µM.
As for `CCCCn1c(=O)c(C(=O)Nc2nnc(C(C)C)s2)c(O)c2ccccc21`, the IC50 was 1.87 µM.
To `Nc1ccccc1Nc1ccccc1` belongs 1.81 µM; to `Cc1ccc(CCC(=O)Nc2ccc([N+](=O)[O-])cc2)o1`, 15.1 µM (inactive); to `O=C(Nc1sc2c(c1C(=O)O)CCCCC2)c1ccccc1F`, 15.6 µM (inactive).
The figure for `Oc1c(Br)cc(Br)cc1/C=N/c1nccs1` is 21.2 µM (inactive); for `CCOC(=O)C1(CCc2ccccc2)CCN(Cc2ccccn2)CC1` it is 13.6 µM (inactive); for `O=C(OCCCCN1C(=O)c2ccccc2C1=O)c1ccc(Br)o1` it is 6.06 µM.
The figure for `NC(N)=N/N=C/c1cccc([N+](=O)[O-])c1O` is 2.01 µM; for `Cc1cc(C)n2[nH]c(=O)c(N=Nc3cccc(Cl)c3)c2n1` it is 4.13 µM.
Consider `C/C(=N\NC(=O)COc1cccc(C)c1)c1ccc2ccccc2c1O`, for which the IC50 is 0.18 µM.
For `CC(=O)c1ccc(NC(=O)c2cc(CC(C)C)on2)cc1`, the IC50 is 3.58 µM.
To `COc1ccc(NC(=O)c2nc3ccccc3s2)cc1` belongs 9.36 µM.
The figure for `O=C(Oc1ccccc1)c1cccc(COC(=O)c2cnccn2)c1` is 28.6 µM (inactive).
For `COc1cc(/C=N/Nc2ccc(Cl)c(C(=O)O)c2)ccc1OC(=O)c1cccs1`, the IC50 was 8.27 µM.
As to `CCCOc1ccc(N2CC(C(=O)Nc3ccccn3)CC2=O)cc1` (configuration not stated), the IC50 was 10.9 µM (inactive).
The figure for `Cc1cccc(C)c1NC(=O)COC(=O)CCc1c[nH]c2ccccc12` is 19.3 µM (inactive); for `COc1ccc(C2=NOC(COC(=O)c3ccc4ccccc4n3)C2)cc1` (configuration not stated) it is 5.43 µM; for `Cc1ccc(C(=O)NNC(=S)NC(=O)c2ccc(Cl)cc2)cc1` it is 4.01 µM.
The figure for `CCCC(C)C(=O)Nc1ccc(Cl)cn1` (configuration not stated) is 10.3 µM (inactive); for `COc1cc(/C=C2\C(=O)N(c3ccc(S(N)(=O)=O)cc3)N=C2C)ccc1OC(=O)c1ccco1` it is 7.44 µM; for `COc1cccc2cc(-c3nc4ccccc4[nH]3)c(=O)oc12` it is < 0.2 µM.
As to `Cc1ccc(Sc2ccc(C=C3C(=O)N(C)C(=O)N(C)C3=O)o2)cc1`, the IC50 is 3.04 µM.
For `O=C(Nc1ccc(N2CCN(C(=O)c3ccco3)CC2)c(Cl)c1)c1cccs1`, the IC50 is 9.56 µM.
The figure for `COC(=O)c1ccccc1NC(=O)C1CC(c2ccc(F)cc2)=NO1` (configuration not stated) is 10.2 µM (inactive); for `CCCOc1ccc(N2CC(C(=O)Nc3ccccc3F)CC2=O)cc1` (configuration not stated) it is 15.8 µM (inactive); for `Cc1ccc(OC(=O)c2ccc(Br)o2)cc1` it is 13.6 µM (inactive).
In the case of `CC(=O)Nc1cccc(-c2nc3ccccc3c(=O)o2)c1`, the IC50 is 7.84 µM.
As for `O=C(c1ccccc1)C(CN1CCCC1)c1ccccc1` (configuration not stated), the IC50 was 5.51 µM.
The figure for `COc1ccc(OCC(=O)Nc2ccc(N3CCN(C(=O)c4ccco4)CC3)cc2)cc1` is 20.8 µM (inactive); for `Cc1cccc(NC(=O)c2ccc([N+](=O)[O-])o2)c1C` it is 6.39 µM; for `O=C1CC(=O)CC(c2ccccc2)C1` it is 29.8 µM (inactive).
The figure for `O=C(OCC(=O)N1CCCC1)c1cc(Br)ccc1Cl` is 6.94 µM.
For the compound `O=C(N/N=C/C(Br)=C/c1ccccc1)c1cnccn1`, the IC50 was 13.1 µM (inactive).
As for `CCOc1ccc2nc(/N=C/c3nc(-c4ccccc4)oc3O)sc2c1`, the IC50 is 6.2 µM.
To `O=C(CNC(=O)c1ccccc1F)OCc1csc(-c2ccccc2)n1` belongs 15.2 µM (inactive).
To `C=CCNc1nc(C(=O)OCC(=O)c2cccc(Br)c2)cs1` belongs 20.8 µM (inactive).
The figure for `Cc1ccsc1/C=N/NC(=O)c1ccncc1` is 2.05 µM; for `CC(=O)Oc1c(C)cc(Cl)cc1C(=O)Nc1ccc([N+](=O)[O-])cc1Cl` it is 2.71 µM.
Consider `Cc1cc(S(=O)(=O)c2ccc([N+](=O)[O-])cn2)ccc1Br`, for which the IC50 is 0.15 µM.
In the case of `CC(=O)c1ccc(OCC(=O)Nc2ccc3c(c2)CCC3)cc1`, the IC50 was 12.4 µM (inactive).
To `O=C(COc1ccc2ccccc2c1)N1CCCC1` belongs 14.7 µM (inactive); to `CC(C)c1ccc2c(c1)C(N1CCNCC1)Cc1ccc(F)cc1S2` (configuration not stated), 14.5 µM (inactive); to `Cc1ccc(/C=N/NC(=O)c2ccncc2)s1`, 1.43 µM.
As for `CC(C)CN1C(=O)/C(=C(/C#N)C(=O)NC2CCCCC2)c2ccccc21`, the IC50 is 25.9 µM (inactive).
In the case of `CCOc1ccccc1OC(=O)c1cc2ccccc2oc1=O`, the IC50 was 21.5 µM (inactive).
To `O=C(Nc1nc2c(F)cc(F)cc2s1)c1ccccn1` belongs 2.12 µM; to `O=Cc1c(NCc2ccco2)nc2ccccn2c1=O`, 4.93 µM.
To `O=C(N/N=C/C=C/c1ccccc1)c1cccs1` belongs 45.2 µM (inactive); to `Cn1c(SCCOc2cccc(Cl)c2)nnc1-c1ccncc1`, 11.4 µM (inactive).
In the case of `CC(NCc1ccc(OCc2ccc(Cl)cc2)cc1)C(O)c1ccccc1` (configuration not stated), the IC50 is 6.84 µM.
To `Cc1cccc2nc(-c3cccnc3)c(NCCC(C)C)n12` belongs 16.1 µM (inactive).
The figure for `O=C(Oc1cccc2cccnc12)c1ccc2c(c1)OCCO2` is 0.96 µM.
As to `CCOC(=O)CC(=O)Nc1ccc(C(=O)OCC)cc1`, the IC50 was 5.23 µM.
The figure for `Cc1ccnc(NC(=O)CCc2c[nH]c3ccccc23)c1` is 5.51 µM; for `O=C(Cc1ccc(Cl)cc1)OCC(=O)c1ccc[nH]1` it is 5.58 µM.
For the compound `CN1CCN(c2ccc(NC(=O)c3ccc(-c4ccc(Cl)cc4)o3)cc2)CC1`, the IC50 was 5.1 µM.
As for `CCCNC(=O)NC(=O)COc1ccc(-c2ccc(C#N)cc2)cc1`, the IC50 was 2.54 µM.
The figure for `Cc1ccc(NC(=O)C2COc3ccccc3O2)nc1` (configuration not stated) is 6.26 µM.
The figure for `O=C(COC(=O)c1cc(Br)ccc1O)Nc1ccc2c(c1)OCO2` is 7.79 µM; for `CC1=NN(c2ccccc2)C(=O)C1C(=O)c1ccccc1` (configuration not stated) it is 15.9 µM (inactive).
To `Cc1ccccc1OCCCCc1c(C)n[nH]c1C` belongs 13.1 µM (inactive); to `CC(OC(=O)c1ccc2c(=O)n3c(nc2c1)CCCCC3)C(=O)Nc1ccc(Cl)cn1` (configuration not stated), 3.69 µM; to `CC(=O)Oc1c(-c2ccc(Br)o2)oc2ccccc2c1=O`, 2.86 µM.
In the case of `O=C(OCC#CCSc1nc2ccccc2o1)c1ccco1`, the IC50 was 5.75 µM.
To `COc1ccc(C(=O)N/N=C(\C)c2ccccn2)cc1OC` belongs 4.92 µM; to `O=C(N[C@@H]1C[C@H]2CC[C@@H]1C2)c1ccco1`, 15.1 µM (inactive).
To `CN1CCN(C2Cc3ccccc3Sc3cc(C(F)(F)F)ccc32)CC1` (configuration not stated) belongs 12 µM (inactive).
For `CCOC(=O)CN1NC2(CCC(C)CC2)NC1=S` (configuration not stated), the IC50 is 15.2 µM (inactive).
To `CCCn1nnnc1NC(=O)c1cc(Cl)ccc1Cl` belongs 6.8 µM; to `CCS(=O)(=O)c1ncc(Cl)c(C(=O)Nc2ccc(S(=O)(=O)N3CCC(C)CC3)cc2)n1`, 9.7 µM; to `CCc1cc2c3c(c1)C(C)CC(C)(C)N3C(=O)/C2=C1\SC(=O)NC1=O` (configuration not stated), 21.5 µM (inactive).
Turning to `CCCCCCNC(=O)c1ccc(Br)o1`, the IC50 is < 0.1 µM.
For the compound `O=c1c2c(nc3c(-c4ccccc4)c[nH]n13)CCCC2`, the IC50 is 21.1 µM (inactive).
To `CCCc1cc(=O)n2[nH]c(C)c(-c3ccccc3)c2n1` belongs 11.4 µM (inactive).
The figure for `O=C(c1ccc(-c2ccc([N+](=O)[O-])cc2)o1)N1CCCCCCC1` is 11.6 µM (inactive).
`Oc1ccc(Cl)cc1C1=NNC(c2cccs2)C1` (configuration not stated): the IC50 was 3.85 µM.
To `COc1cc(OC)cc(C(=O)NNC(=O)c2ccccn2)c1` belongs 11.6 µM (inactive); to `O=C(c1cc(F)ccc1F)C1CCCN(Cc2ccc3nonc3c2)C1` (configuration not stated), 12.7 µM (inactive).
To `CCc1ccc(Cc2cnc(NC(=O)C3=NCCN3)s2)cc1` belongs 2.85 µM; to `COc1ccc(CN=C2NN=C(c3ccc(Cl)cc3)CS2)cc1`, 13.8 µM (inactive).
To `Cc1ccc(OC(=O)c2sc3ncn(C)c(=O)c3c2C)cc1` belongs 14.2 µM (inactive); to `CC(C)CNc1nc(=S)nc(N(C)C)[nH]1`, 11.5 µM (inactive).

For the origin of these results see PubChem BioAssay AID488890 (Southern Research Specialized Biocontainment Screening …, 2010).
